From patent publication US8748624B2, “Picolinamido-propanoic acid derivatives useful as glucagon receptor antagonists” (Janssen Pharmaceutica NV, priority 2011, dated 2014) come the findings set out here.

SMILES strings stand for the structures.

The target of one test is human GCGR (Homo sapiens (Human), UniProt P47871). Nature of the test: Cellular functional assay, cAMP readout (glucagon-stimulated cAMP in HEK293 cells expressing human GCGR). Type of test: cell-based. Particulars: hGluc-1 HEK cells, LANCE TR-FRET, IC50 converted to Ki, average if tested more than once. The procedure:
IC50 Values in Cellular Functional Assays: cAMP Readout
Full-length human GCGR (Accession Number: NM000160) subcloned into pcDNA3.1 was stably transfected into HEK293 cells (hGluc-1 HEK) and maintained under G418 selection (500 μg/mL). Cell cultures were maintained in DMEM/F12 media supplemented with 10% FBS and 1% GlutaMax. Glucagon stimulated cAMP was quantified using LANCE technology as per manufacturer instructions. On the day of the experiment, spent media was removed and cells were washed with Hank's Buffered Saline solution (HBSS) and cells were harvested with non-enzymatic cell dissociation solution, then washed once with HBSS. Cells were re-suspended in stimulation buffer at a concentration of 0.83×10^6 cells/ml and cAMP detection antibody was added. 6 μl/well of this solution was then dispensed in a 384 well plate (cell density 5000 cells/well). Test compound was serially diluted in DMSO and 50 nl were dispensed on top of the cell solution and allowed to incubate for 30 minutes. 6 μl of a 2× glucagon solution (final concentration in assay […]) was then added and the reaction was terminated after 5 minutes with the addition of detection mix. The mixture was incubated, protected from light for 1.5 h. cAMP levels were quantified by TR-FRET in an EnVision instrument against a known standard. IC50's were generated by using a non-linear regression macro driven in Excel and converted to K, values.
(In general: In TR-FRET formats the signal depends on donor and acceptor labels being close together.)

Test [1] has as its target human glucagon receptor (GCGR) (Homo sapiens (Human), UniProt P47871). Nature of the test: Inhibition of 125I-glucagon binding to membranes from HEK293 cells expressing the human glucagon receptor. The conditions noted are these: membranes of hGluc-1 HEK cells, 125I-glucagon 0.3 nM, 2 hours room temperature; IC50 converted to Ki; average if tested more than once. The method, then: Inhibition ^125I-Glucagon Binding to Membranes from HEK293 Cells Expressing the Human Glucagon Receptor (GCGR)
Full-length human GCGR (Accession Number: NM000160) subcloned into pcDNA3.1 was stably transfected into HEK293 cells (hGluc-1 HEK) and maintained under G418 selection (500 μg/mL). Cell cultures were maintained in DMEM/F12 media supplemented with 10% FBS and 1% GlutaMax. Membranes were prepared from these cells as follows: cells were harvested from T225 flasks and re-suspended in hypotonic lysis buffer, 50 mM HEPES pH 7.4 supplemented with Complete Protease inhibitors (Boehringer Mannheim, Indianapolis, Ind.). Cells were dounced 20 times on ice and spun at 700×g to remove nuclei and unlysed cells. The resulting pellet was re-suspended in hypotonic lysis buffer and the above step was repeated. Supernatants from the low speed centrifugation were combined and subsequently spun at 100K×g for 1 hr at 4° C. and the resulting pellet was re-suspended in buffer containing 50 mM HEPES pH 7.4 and 10% sucrose and the protein concentration was adjusted at 1 mg/mL as determined in the BCA assay. Membranes were aliquoted and stored at −80° C. The binding assay was performed by a filtration method in a 384 well format. Membranes at a final protein concentration of 6 μg/well were incubated with ^125I-glucagon at 0.3 nM and in the presence of compound for 2 hours at room temperature in a total reaction volume of 40 μL per well. Assay buffer consisted of 50 mM HEPES, pH 7.4, 5 mM MgCl2, 1 mM CaCl2 and 0.2% BSA. 30 μL of the reaction was then transferred to PEI treated filter plates and followed by filter aspiration. Plates were then washed 5× and allowed to dry at room temperature overnight. The next day the bottom of the plate was covered with seal tape and scintillant was added. Total counts retained by the filters were quantified with a Top Count instrument. IC50's were generated by using a non-linear regression macro driven in Excel and converted to K's.

Chain of human GCGR (P47871 26-477): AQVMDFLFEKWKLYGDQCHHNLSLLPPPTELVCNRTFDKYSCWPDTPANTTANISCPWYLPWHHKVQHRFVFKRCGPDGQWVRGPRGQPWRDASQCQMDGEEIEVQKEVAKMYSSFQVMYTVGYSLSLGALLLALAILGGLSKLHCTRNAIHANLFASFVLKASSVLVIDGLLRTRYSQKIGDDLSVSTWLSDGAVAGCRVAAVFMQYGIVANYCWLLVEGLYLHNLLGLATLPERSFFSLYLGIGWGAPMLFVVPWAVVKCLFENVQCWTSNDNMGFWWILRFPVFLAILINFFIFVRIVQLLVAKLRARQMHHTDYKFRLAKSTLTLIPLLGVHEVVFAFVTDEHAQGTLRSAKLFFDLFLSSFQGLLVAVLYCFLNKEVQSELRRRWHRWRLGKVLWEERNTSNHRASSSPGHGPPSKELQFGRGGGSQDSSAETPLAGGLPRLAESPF
Chain of human glucagon receptor (GCGR) (P47871 26-477): as above

For the molecule `O=C(O)CCNC(=O)c1ccc(-c2ccccc2CNc2ccc(-c3ccc(Cl)c(Cl)c3)cc2)cn1` [Compound 8, 3-(5-(2-(((3′,4′-dichloro-[1,1′-biphenyl]-4-yl)amino)methyl)phenyl)picolinamido)propanoic acid], the figures for the Ki (on human GCGR; in test [1]) were 565 nM and 94.3 nM, respectively.
The corresponding values for `O=C(O)CCNC(=O)c1ccc(-c2ccccc2CNc2ccc(-c3ccc(C(F)(F)F)cc3)cc2)cn1` [Compound 9] are 550 nM and 95.7 nM.
The corresponding values for `O=C(O)CCNC(=O)c1ccc(-c2cc(Cl)ccc2CNc2ccc(-c3ccc(Cl)cc3)c(Cl)c2)cn1` [Compound 10, 3-(5-(5-chloro-2-(((2,4′-dichloro-[1,1′-biphenyl]-4-yl)amino)methyl)phenyl)picolinamido)propanoic acid] are 110 nM and 31.2 nM.
On the same counts, the results for `O=C(O)CCNC(=O)c1ccc(-c2cc(Cl)ccc2CNc2ccc(-c3ccc(Cl)cc3Cl)cc2F)cn1` [Compound 11, 3-(5-(5-chloro-2-(((2′,4′-dichloro-3-fluoro-[1,1′-biphenyl]-4-yl)amino)methyl)phenyl)picolinamido)propanoic acid] are 265 nM and 41.2 nM.
`O=C(O)CCNC(=O)c1ccc(-c2cc(Cl)ccc2CNc2ccc(-c3ccc(Cl)cc3)cc2F)cn1` [Compound 12, 3-(5-(5-chloro-2-(((4′-chloro-3-fluoro-[1,1′-biphenyl]-4-yl)amino)methyl)phenyl)picolinamido)propanoic acid]: the results for the Ki (on human GCGR; in test [1]) were 500 nM and 53 nM, respectively.
The corresponding values for `O=C(O)CCNC(=O)c1ccc(-c2cc(Cl)ccc2CNc2ccc(-c3ccc(Cl)c(F)c3)cc2F)cn1` [Compound 13, 3-(5-(5-chloro-2-(((4′-chloro-3,3′-difluoro-[1,1′-biphenyl]-4-yl)amino)methyl)phenyl)picolinamido)propanoic acid] are 311 nM and 39.3 nM.
With `O=C(O)CCNC(=O)c1ccc(-c2cc(Cl)ccc2CNc2ccc(-c3ccc(F)cc3)cc2)cn1` [Compound 15, 3-(5-(5-chloro-2-(((4′-fluoro-[1,1′-biphenyl]-4-yl)amino)methyl)phenyl)picolinamido)propanoic acid], the Ki – broadly, the equilibrium dissociation constant of an inhibitor or competing ligand from its target – on human GCGR was determined as 90.6 nM; in test [1], 33.9 nM.
The corresponding values for `O=C(O)CCNC(=O)c1ccc(-c2cc(Cl)ccc2C(=O)Nc2ccc(-c3ccc(Cl)cc3)cc2)cn1` [Compound 16, 3-(5-(5-chloro-2-((4% chloro-[1,1′-biphenyl]-4-yl)carbamoyl)phenyl)picolinamido)propanoic acid] are 50.5 nM and 43.8 nM.
The corresponding values for `CN(Cc1ccc(Cl)cc1-c1ccc(C(=O)NCCC(=O)O)nc1)c1ccc(-c2ccc(Cl)cc2)cc1` [Compound 17, 3-(5-(5-chloro-2-(((4′-chloro-[1,1′-biphenyl]-4-yl)(methyl)amino)methyl)phenyl)picolinamido)propanoic acid] are over 10400 nM and 1480 nM.
The corresponding values for `O=C(O)CCNC(=O)c1ccc(-c2cc(Cl)ccc2C(=O)Nc2ccc(-c3ccc(Cl)cc3Cl)cc2)cn1` [Compound 19, 3-(5-(5-chloro-2-((2′,4′-dichloro-[1,1′-biphenyl]-4-yl)carbamoyl)phenyl)picolinamido)propanoic acid] are 45.8 nM and 39.6 nM.
Turning to `O=C(O)CCNC(=O)c1ccc(-c2cc(Cl)ccc2C(=O)Nc2ccc(-c3ccc(F)cc3)cc2)cn1` [Compound 20, 3-(5-(5-chloro-2-((4′-fluoro-[1,1′-biphenyl]-4-yl)carbamoyl)phenyl)picolinamido)propanoic acid], the Ki on human GCGR was found to be 158 nM; in test [1] it was 61.4 nM.
On the same counts, the results for `Cc1cc(Cl)ccc1-c1ccc(NCc2ccc(C(F)(F)F)cc2-c2ccc(C(=O)NCCC(=O)O)nc2)cc1` [Compound 22, 3-(5-(2-(((4′-chloro-2′-methyl-[1,1′-biphenyl]-4-yl)amino)methyl)-5-(trifluoromethyl)phenyl)picolinamido)propanoic acid] are 22.4 nM and 25.2 nM.
On the same counts, the results for `O=C(O)CCNC(=O)c1ccc(-c2cc(C(F)(F)F)ccc2CNc2ccc(-c3ccc(F)cc3Cl)cc2)cn1` [Compound 23, 3-(5-(2-(((2′-chloro-4′-fluoro-[1,1′-biphenyl]-4-yl)amino)methyl)-5-(trifluoromethyl)phenyl)picolinamido)propanoic acid] are 130 nM and 26.1 nM.
For the molecule `O=C(O)CCNC(=O)c1ccc(-c2cc(C(F)(F)F)ccc2CNc2ccc(-c3ccc(C(F)(F)F)cc3Cl)cc2)cn1` [Compound 24, 3-(5-(2-(((2′-chloro-4′-(trifluoromethyl)-[1,1′-biphenyl]-4-yl)amino)methyl)-5-(trifluoromethyl)phenyl)picolinamido)propanoic acid], the figures for the Ki (at human GCGR; in test [1]) were 32.4 nM and 28.3 nM, respectively.
The corresponding values for `O=C(O)CCNC(=O)c1ccc(-c2cc(C(F)(F)F)ccc2CNc2ccc(-c3ccc(F)c(C(F)(F)F)c3)cc2)cn1` [Compound 26, 3-(5-(2-(((4′-fluoro-3′-(trifluoromethyl)-[1,1′-biphenyl]-4-yl)amino)methyl)-5-(trifluoromethyl)phenyl)picolinamido)propanoic acid] are 175 nM and 29.6 nM.
On to `O=C(O)CCNC(=O)c1ccc(-c2cc(C(F)(F)F)ccc2CNc2ccc(-c3ccc(Cl)cc3Cl)c(Cl)c2)cn1` [Compound 27, 3-(5-(2-(((2,2′,4′-trichloro-[1,1′-biphenyl]-4-yl)amino)methyl)-5-(trifluoromethyl)phenyl)picolinamido)propanoic acid], for which the Ki at human GCGR is 17.3 nM; in test [1], 21.5 nM.
As to `O=C(O)CCNC(=O)c1ccc(-c2cc(C(F)(F)F)ccc2CNc2ccc(-c3ccc(Cl)cc3)c(Cl)c2)cn1` [Compound 28, 3-(5-(2-(((2,4′-dichloro-[1,1′-biphenyl]-4-yl)amino)methyl)-5-(trifluoromethyl)phenyl)picolinamido)propanoic acid], the Ki on human GCGR is 31.6 nM; in test [1] it was 28 nM.
On the same counts, the results for `O=C(O)CCNC(=O)c1ccc(-c2cc(C(F)(F)F)ccc2CNc2ccc(-c3ccc(C(F)(F)F)cc3)cc2)cn1` [Compound 29, 3-(5-(5-(trifluoromethyl)-2-(((4′-(trifluoromethyl)-[1,1′-biphenyl]-4-yl)amino)methyl)phenyl)picolinamido)propanoic acid] are 62 nM and 30.4 nM.
On the same counts, the results for `Cc1cc(C(F)(F)F)ccc1-c1ccc(NCc2ccc(C(F)(F)F)cc2-c2ccc(C(=O)NCCC(=O)O)nc2)cc1` [Compound 30, 3-(5-(2-(((2′-methyl-4′-(trifluoromethyl)-[1,1′-biphenyl]-4-yl)amino)methyl)-5-(trifluoromethyl)phenyl)picolinamido)propanoic acid] are 19.4 nM and 19.3 nM.
In the case of `O=C(O)CCNC(=O)c1ccc(-c2cc(C(F)(F)F)ccc2CNc2ccc(-c3ccc(F)c(C(F)(F)F)c3)c(Cl)c2)cn1` [Compound 31, 3-(5-(2-(((2-chloro-4′-fluoro-3′-(trifluoromethyl)-[1,1′-biphenyl]-4-yl)amino)methyl)-5-(trifluoromethyl)phenyl)picolinamido)propanoic acid], the Ki worked out at 19.4 nM on human GCGR and 22.1 nM in test [1].
With `O=C(O)CCNC(=O)c1ccc(-c2cc(C(F)(F)F)ccc2CNc2ccc(-c3ccc(Cl)c(C(F)(F)F)c3)c(Cl)c2)cn1` [Compound 32, 3-(5-(2-(((2,4′-dichloro-3′-(trifluoromethyl)-[1,1′-biphenyl]-4-yl)amino)methyl)-5-(trifluoromethyl)phenyl)picolinamido)propanoic acid], the Ki on human GCGR stood at 72.5 nM; in test [1] it was 25.1 nM.
